From PMC10049354, “Anti-Inflammatory Effects and Photo- and Neuro-Protective Properties of BIO203, a New Amide Conjugate of Norbixin, in Development for the Treatment of Age-Related Macular Degeneration (AMD)” (International Journal of Molecular Sciences, 2023)
Where two headings read alike, the source gives them in different places.

Key:
Abca4−/− Rdh8−/− mice = assay: A2E quantification in eyes of Abca4−/− Rdh8−/− mice (HPLC-MS/MS); type: in vivo, mouse; conditions: 6 months
Source text: To test the preventive/curative action of oral administration of BIO203 against retinal neurodegeneration, a total of 27 Pigmented Abca4^−/− Rdh8^−/− mice carrying the Rpe65-Leu450 mutation and the rd8 mutation in the Crb1 gene from Case Western Reserve University of eleven to twelve months of age were used. Three groups of 9 males received control chow (Teklad Custom Research Diet 2016© pellets) or chow containing LD-BIO203 or HD-BIO203 orally for 6 months. After 6 months of complementation, ERG was measured in both eyes. In the control group, two mice died during the period of complementation and one mouse during ERG measurement. In the HD-BIO203 group, one mouse died before the end of complementation, and 3 mice died just after anesthesia. All the mice that received LD-BIO203 were alive until the end of the complementation. One of them died during the photopic ERG measurement. Blood was collected by submandibular puncture in all mice before being euthanized. In each group, half of the eyes were removed for A2E and BIO203 measurements, and half of the eyes were used for histological analyses and photoreceptor layer quantification.
A2E quantification in eyes was performed using the HPLC-MS/MS method, which has been described previously.

PPAR = PPAR transactivation assay (Cignal reporter, luciferase) induced by A2E; type: cell-based, pig; conditions: compound 20 μM; A2E 20 μM; RPE cells
Method: (§1) Transactivation assays were performed as previously described. Briefly, RPE cells were plated in DMEM 2% FCS at a density of 6 × 10^4 cells/cm^2. The next day transfections using the Cignal Reporter Assay Kits for PPAR, RXR, AP-1, and NF-κB were performed with Lipofectamine and Plus Reagent in serum-free medium. Three hours after the transfection, A2E and/or BIO203, both at 20 μM, were added to the culture medium for 24 h. Luciferase activity was measured using the Dual-Luciferase Reporter Assay System and with a luminometer (Infinite M1000 from Tecan, Mannedorf, Switzerland). At least 3 independent transfections were performed in triplicate for each condition.

IL-6 = IL-6 mRNA expression induced by A2E (quantitative RT-PCR); type: cell-based, pig
Method: RPE cells were obtained from pig eyes, as previously described. RPE cells were seeded on a 96-well plate at a density of 1.5 × 10^5 cells/cm^2 in DMEM 2% FCS. BIO201, BIO203, or its pure enantiomers were added in increasing concentrations to the culture medium 48 h before illumination. A2E was added to the medium at a final concentration of 30 μM, and 19 h later, blue-light illumination was performed for 50 min using a 96 blue-led device (Durand, St Clair de la Tour, France) emitting at 470 nm (1440 mcd, 8.6 mA). Just before illumination, the culture medium was replaced by a modified DMEM without any photosensitizer and with 2% FCS. Twenty-four hours after blue-light irradiation, all cell nuclei were stained with Hoechst 33342, and nuclei of dead cells with ethidium homodimer 2, fixed with paraformaldehyde (4% in PBS, 10 min) and 9 pictures per well were captured using a fluorescence microscope (Nikon TiE) equipped with a CoolSNAP HQ2 camera and driven by Metamorph Premier On-Line program. Quantification of live cells was performed using Metamorph Premier Off-Line and a homemade program by subtraction of dead cells from all cells. For cytokines mRNA analysis, RPE cells were seeded in 24-well plates and left untreated or treated with A2E or BIO203 alone or A2E plus BIO203. […]

NF-κB [1] = assay: NF-κB transactivation assay induced by A2E; type: cell-based, pig; conditions: compound 20 μM; A2E 20 μM; p < 0.05
Method: as §1

IL-8 = test system: IL-8; set-up: method as in PMID 34544906; conditions: norbixin at 20 mM (so in the source); cited from earlier work
RXR = test system: RXR; set-up: method as in PMID 34544906; conditions: porcine RPE cells in vitro; cited from earlier work
NF-κB [2] = test system: NF-κB; set-up: method as in PMID 34544906; conditions: cited from earlier work

Compound | change of A2E concentration in the retinas compared with control pellets (Abca4−/− Rdh8−/− mice; HD pellets, not significant, p = 0.407) | amount of ocular A2E compared with control pellets (Abca4−/− Rdh8−/− mice; LD pellets) | inhibition of PPAR transactivation induced by A2E (PPAR) | change of IL-6 mRNA expression induced by A2E (IL-6; BIO203 20 mM (so in the source), A2E 20 μM, porcine RPE cells, p < 0.001) | effect on IL-6 expression on its own (without A2E) (IL-6; BIO203 alone, not statistically significant) | change of NF-κB transactivation induced by A2E (NF-κB [1]) | effect on IL-8 mRNA expression (IL-8) | inhibition of RXR transactivation induced by A2E (RXR) | change of NF-κB transactivation induced by A2E (NF-κB [2])
COC1CCCN(C(=O)/C=C/C(C)=C/C=C/C(C)=C/C=C/C=C(C)/C=C/C=C(C)\C=C\C(=O)O)C1 (stereo not drawn) [BIO203] | −21.7% | did not differ significantly | entirely inhibits | −104.8% | slightly inhibited | −69.4% |  |  | 
CC(=C/C=C/C(C)=C/C=C/C=C(C)/C=C/C=C(C)/C=C/C(=O)O)/C=C/C(=O)O [norbixin, 9′-cis-norbixin] |  |  |  |  |  |  | significantly reduced | significantly inhibited | −73%
